Measurements reported in patent US5190924A, “Peptide amides and amide dimers useful as muscle relaxants” (BOC Health Care, Inc., priority 1991, dated 1993).
Read-outs that look alike come from different tables or passages of the source.

Columns and labels:
[1] = system: neuromuscular junction; assay: Mouse inclined screen grip strength test; type: in vivo; details: mice on 45° inclined screen; dose required to inhibit grip strength
Experimental: The first step, in mice, establishes a preliminary estimate of the potency and efficacy of the compounds. The animals were placed on a screen, inclined 45° to the horizontal. Effective doses caused the mice to lose their grip and slide down the inclined screen. […]

[2] = system: neuromuscular junction; type: in vivo; details: for Neuromuscular Junction Blocking Activity (ED90), Rabbit: Table I, rabbit paw twitch; for ED90 (potency: dose required to depress twitch tension to 10% of control): Table II, anesthetized rabbits, marginal ear vein; for Duration (time from injection until train-of-four recovered to 75%) / HR (% change from pre-drug heart rate) / onset T85% (time from injection until 85% of maximal drug effect) / BP (% change of pre-drug blood pressure): rabbit
Excerpt: In a large series of similar telaxants, the rabbit dose is typically 125% of that in mice. The mechanism of action was also confirmed in this test by observing train-of-four and tetanus fade, post-tetanic potentiation of single twitches and administration of the anticholinesterase drug neostig- mine which reverses the relaxation. Reversibility, rapid onset and short duration are important factors to the anesthesiologist.
The following is a brief description of the methodologies used in rabbits to describe neuromuscular blocking activity of the subject compounds. A more detailed description of these methods is presented in "Microcomputer Use in Measuring Onset, Duration, and Recovery from Non-Depolarizing Skeletal Muscle Relaxants in Rabbits", P. D. Thut et al, Drug development Research 5:182, 1985.
Male New Zealand white rabbits weighing between 2.5 and 3.4 kg were anesthetized with pentobarbital (30 mg/kg) and placed on their backs upon a 40° C. water filled temperature regulation pad. Following tracheostomy, the lungs were mechanically ventilated at 28 breaths per minute with room air, using an open system delivering 200 mi/stroke. This ventilation maintained pCO2 at 38 mmHG and pO2 at 85 mmHg. Direct arterial blood pressure was measured from the right common carotid artery. The test compounds were administered through a canula placed in the marginal ear vein. Each foreleg was taped to a cushioned plate held in a femur clamp attached to the spinal board rack. The left centeral digit of each paw was connected to a force displacement transducer for measurement of muscle tension. Nerve stimulation was provided by pairs of pin electrodes placed on both sides of the ulnar nerve at the elbow of both forearms. The right ulnar nerve was stimulated at […] for 0.5 msec duration. The left ulnar nerve was similarly stimulated, every 15 seconds, with addition of interspersed trains-of-four and tetanizing stimuli. The parameters reported in Table II are: potency (ED90), which is the dose required to depress twitch tension to 10% of its control value; onset (T85%), which is the time from injection unit 85% of the maximal drug effect is achieved, duration, which is the time from injection until the train-of-four has recovered to 75%, blood pressure (BP), which is the percentage change of pre-drug blood pressure; and heart rate (HR), which is the percentage change from pre-drug heart rate.

[3] = equi-efficacious dose, arterial blood pressure

## CC(C)CC(NC(=O)C(Cc1ccccc1)NC(=O)C(CC(C)C)[N+](C)(C)C)C(=O)NCCCCCCC[N+](C)(C)C [Compound E, N,N,N-trimethyl-L-leucyl-L-phenylalanyl-L-Leucine-(7-trimethylammonium) heptylamide]
[1]
  Neuromuscular Junction Blocking Activity (ED90), Mouse: 1.995 mg/kg

## CC(=O)O[C@H]1C[C@@H]2CC[C@@H]3[C@H](CC[C@@]4(C)[C@H]3C[C@H]([N+]3(C)CCCCC3)[C@@H]4OC(C)=O)[C@@]2(C)C[C@@H]1N1CCCCC1 [vecuronium]
[2]
  Neuromuscular Junction Blocking Activity (ED90), Rabbit: 0.020 mg/kg
  ED90 (potency: dose required to depress twitch tension to 10% of control): 0.02 mg/kg
[2]; equi-efficacious dose
  Duration (time from injection until train-of-four recovered to 75%): 16.80 min
  HR (% change from pre-drug heart rate): -1.90 % change
  onset T85% (time from injection until 85% of maximal drug effect): 97.30 s
[2]; [3]
  BP (% change of pre-drug blood pressure): 1.10 % change
[1]
  Neuromuscular Junction Blocking Activity (ED90), Mouse: 0.025 mg/kg

## CC(C)CC(NC(=O)C(Cc1ccccc1)[N+](C)(C)C)C(=O)NCC[N+](C)(C)C.O=C([O-])C(F)(F)F.O=C([O-])C(F)(F)F (stereo not drawn) [Compound D, Me3 N^+ -Phe-Leu-NH-(CH2)2 -N^+ Me3 2(CF3 CO2)^=]
[2]
  Neuromuscular Junction Blocking Activity (ED90), Rabbit: 31.13 mg/kg
  ED90 (potency: dose required to depress twitch tension to 10% of control): 31.13 mg/kg
[2]; equi-efficacious dose
  Duration (time from injection until train-of-four recovered to 75%): 15.00 min
  HR (% change from pre-drug heart rate): 4.60 % change
  onset T85% (time from injection until 85% of maximal drug effect): 36.3 s
[2]; [3]
  BP (% change of pre-drug blood pressure): -28.30 % change
[1]
  Neuromuscular Junction Blocking Activity (ED90), Mouse: 16.000 mg/kg

## CC(C)CC(NC(=O)C(Cc1ccccc1)NC(=O)C(CC(C)C)[N+](C)(C)C)C(=O)NCCCCC[N+](C)(C)C.O=C([O-])C(F)(F)F.O=C([O-])C(F)(F)F (stereo not drawn) [Compound B, Me3 N^+ -Leu-Phe-Leu-NH-(CH2)5 -N^+ Me3 2(CF3 CO2)^=]
[1]
  Neuromuscular Junction Blocking Activity (ED90), Mouse: 3.981 mg/kg

## C[N+](C)(C)[C@@H](Cc1ccccc1)C(=O)NCCCCCCCCCCNC(=O)[C@H](Cc1ccccc1)[N+](C)(C)C [Compound C, bis-(N,N,N-trimethyl-L-phenylalanyl) -decane-1,10-diamide]
[2]
  Neuromuscular Junction Blocking Activity (ED90), Rabbit: 4.408 mg/kg
  ED90 (potency: dose required to depress twitch tension to 10% of control): 4.41 mg/kg
[2]; equi-efficacious dose
  Duration (time from injection until train-of-four recovered to 75%): 17.4 min
  HR (% change from pre-drug heart rate): -0.80 % change
  onset T85% (time from injection until 85% of maximal drug effect): 37.60 s
[2]; [3]
  BP (% change of pre-drug blood pressure): -40.30 % change
[1]
  Neuromuscular Junction Blocking Activity (ED90), Mouse: 1.259 mg/kg

## C[N+](C)(C)C(Cc1ccccc1)C(=O)NCCCCCCNC(=O)C(Cc1ccccc1)[N+](C)(C)C.[I-].[I-] (stereo not drawn) [Compound A, Me3 N^+ -Phe-NH-(CH2)6 -NH-Phe-N^+ Me3 2I^-]
[1]
  Neuromuscular Junction Blocking Activity (ED90), Mouse: 7.940 mg/kg

## COc1ccc(CC2c3cc(OC)c(OC)cc3CC[N+]2(C)CCC(=O)OCCCCCOC(=O)CC[N+]2(C)CCc3cc(OC)c(OC)cc3C2Cc2ccc(OC)c(OC)c2)cc1OC (stereo not drawn) [atracurium]
[2]
  Neuromuscular Junction Blocking Activity (ED90), Rabbit: 0.050 mg/kg
  ED90 (potency: dose required to depress twitch tension to 10% of control): 0.05 mg/kg
[2]; equi-efficacious dose
  Duration (time from injection until train-of-four recovered to 75%): 14.30 min
  onset T85% (time from injection until 85% of maximal drug effect): 126.90 s
[2]; in vivo
  BP (% change of pre-drug blood pressure): -3.40 % change
  HR (% change from pre-drug heart rate): -1.00 % change
[1]
  Neuromuscular Junction Blocking Activity (ED90), Mouse: 0.631 mg/kg

## CC(=O)O[C@H]1C[C@@H]2CC[C@@H]3[C@H](CC[C@@]4(C)[C@H]3C[C@H]([N+]3(C)CCCCC3)[C@@H]4OC(C)=O)[C@@]2(C)C[C@@H]1[N+]1(C)CCCCC1 [pancuronium]
[2]
  ED90 (potency: dose required to depress twitch tension to 10% of control): 0.02 mg/kg
[2]; equi-efficacious dose
  Duration (time from injection until train-of-four recovered to 75%): 32.50 min
  HR (% change from pre-drug heart rate): 0.00 % change
  onset T85% (time from injection until 85% of maximal drug effect): 147.50 s
[2]; [3]
  BP (% change of pre-drug blood pressure): 2.70 % change
